Results as given in patent US20090054507A1, “CONTROL OF MALIGNANT CELLS BY KINASE INHIBITION” (CLEVELAND STATE UNIVERSITY, priority 2006, published 2009).

Experiments:
MEG-01 cells [1] = test: RPE-CD41a (αIIbβ3 integrin) flow cytometric immunophenotyping, maturation of MEG-01; type: cell-based, human; settings: 10 μM DMAT vs control untreated
Method: Flow cytometric analysis. Cells were analyzed using a FACSCalibur flow cytofluorometer (Becton-Dickinson), with CellQuestPro ver. 3.3 software. The data was further analyzed with FlowJo ver. 6.2, and WinMDI 2.8 software. Proper gating was performed to characterize each cell population (MEG-01 cells and platelets). The population that corresponds to platelets (small, granulated particles), is PI negative because thrombocytes are anucleated cells (only the viable cells were considered) and were distinguished by their capacity to become activated, undergoing shape change in response to agonist and to show phosphatidylserine (PS) exposure when activated. Platelets were further separated from the megakaryocytic cells, by differential centrifugation, considering the size difference between these cell populations (1-5 μm for platelets and 35-150 μm for megakaryocytic cell line MEG-01) and analyzed separately. Voltage and channels settings were adjusted accordingly. Analyzed values were obtained with WinMDI ver. 2.8.
RPE-CD41a immunophenotyping of MEG-01 cells. CD41a is the antigen for αIIbβ3 complex and it is found on platelets and platelet precursors, including MEG-01 cell line. αIIbβ3 complex is a marker of differentiation for megakaryocytes. […] Cells were counted and adjusted to 10^6 cells/ml and 20 μl of RPE-CD41a was used for 180 μl cell suspension. […]

MEG-01 cells [2] = test: Flow cytometric DNA content assay using PI/RNAse A; type: cell-based, human; settings: 10 μM DMAT for 4 days
Method: Flow cytometric DNA content assessment assay using PI/RNAse A. Cells were serum starved in order to synchronize them in the GO phase. Treatment with DMAT 10 μM for a period of 4 days was performed and then cells were collected for further processing. Cells were fixed in 80% cold Ethanol/PBS added drop-wise. Before PI staining cells were washed with sterile, RNAse, DNAse free, PBS buffer. Fixed cells were incubated with 50 μg/ml PI and 100 μg/ml RNAse A-I in hypotonic citrate staining buffer for 30 minutes in dark, at room temperature.

MEG-01 cells [3] = test: Thrombocytopoiesis / proplatelet formation by microscopy; type: cell-based, human
Method: Light microscopy (phase contrast) and DAPI fluorescence microscopy. High quality pictures and live imaging were obtained at Cleveland Clinic Imaging Core (Cleveland, Ohio). DAPI staining of cultured MEG-01 cells was performed with fresh cells. For live imaging (observing a single cell for a 24 hour period of time) of the thrombocytopoiesis process, MEG-01 suspension cells were made adherent by using Fibronectin (FN) coated culture dishes. FN was used, at 5 μg/cm^2 and incubated at 37° C. for 1 h, as recommended by the supplier (BD Biosciences, Bedford, Mass., USA).
Scanning electron microscopy (SEM). Cell preparation and pictures were performed at the Microscopy Core Facility (Cleveland Clinic). Cells were grown for 4 days in the presence of 10 μM DMAT and then collected by differential centrifugation. Cells were fixed in glutaraldehyde and then further processed at the Core. The clot was prepared with platelets collected from MEG-01 cultures treated with 10 μM DMAT. Human thrombin 0.5 U/ml for 15 minutes was used to activate them.

MCF-7 cells = test: Annexin V apoptosis/necrosis assay, MCF-7; type: cell-based, human
Method: Apoptosis Assays using Flow Cytometry with Annexin V-FITC and propidium iodide (PI). For induction of typical apoptosis, cells were grown in the presence of 1 μM staurosporine (Sigma-Aldrich) for 6 hours. The staurosporine treated cells were stained as follows: control 1 with PI, control 2 with Annexin V-FITC and control 3 both PI and Annexin V-FITC in order to have the brightest controls for compensation and proper collection of the flow cytometry data. Cell necrosis was induced by heat shock (65° C. for 30 minutes). The stained control, both PI and Annexin V-FITC labeled, was then used as the reference in establishing the level of apoptosis induced by the treatments. Data was collected on logarithmic modes, two-colors. Annexin V-FITC corresponds to FL1 H channel, and PI to FL3H or FL2H channels.
Annexin V-FITC and PI apoptosis assay staining protocol. Apoptosis Annexin V-FITC and PI kit from BD Biosciences, CA, USA, was used. 10^5-10^6 cells were stained with 50 μg/ml PI and with 0.5 μg/ml FITC-labeled Annexin V using the staining protocol provided by the supplier. Samples were then analyzed immediately by flow cytometry.

WM-164 cells = test: Anchorage independence in soft agar, WM-164; type: cell-based, human; settings: DMAT 10 μM, one week
tumors of HT1376 cells = test: Murine xenograft of HT1376 cells, tumor volume; type: in vivo, mice; settings: DMAT at effective dosage levels (in DMSO) per animal per day, 36 days
Method: FIG. 95 illustrates the effect of administration of DMAT s compared to a control over a time period of 36 days. FIG. 95 is a graph of a murine xenograft treated with DMAT, compared to a control. Mice with tumors of HT1376 cells were treated with DMAT at effective dosage levels (in DMSO) per animal per day. The daily animal weight was averaged at 32.5 g at the start of treatment. Tumors were measured daily and tumor volumes were calculated based upon a prolate spheroid model. FIG. 95 illustrates the significant benefits of treatment with DMAT (circles) as compared to the control (squares). Although the tumor size increased for HT1376 cells treated with DMAT, the tumor volume remained approximately one-half of the size as that associated with the untreated HT1376 cells.

tumors of U-87 cells = test: Murine xenograft of U-87 cells, tumor volume; type: in vivo, mice; settings: DMAT at effective dosage levels (in DMSO) per animal per day, approximately 24 days
Method: FIG. 96 illustrates the effect of administration of DMAT as compared to a control, i.e. DMSO, for a period of approximately 24 days. FIG. 96 is a graph of a murine xenograft treated with DMAT, compared to a control. Mice with tumors of U-87 cells were treated with DMAT at effective dosage levels (in DMSO) per animal per day. The daily animal weight was averaged at 32.5 g at the start of treatment. Tumors were measured daily and tumor volumes were calculated based upon a prolate spheroid model. FIG. 96 illustrates the significant benefits of treatment with DMAT (squares) as compared to the control (diamonds).

CN(C)c1nc2c(Br)c(Br)c(Br)c(Br)c2[nH]1 [DMAT, 2-dimethylamino-4,5,6,7-tetrabromo-1H-benzimidazole]
maturation level (αIIbβ3 integrin expression, RPE-CD41a) (MEG-01 cells [1]): significant maturation levels | DNA content (ploidy) (MEG-01 cells [2]): become polyploid (ploidy higher than 2N) | thrombocytopoiesis (MEG-01 cells [3]): induced thrombocytopoiesis | proplatelet formation (MEG-01 cells [3]; 10 μM DMAT, as early as from the second day): form proplatelet extensions | level of apoptotic cells (MCF-7 cells; 10 μM DMAT, 24 hours): 28.4% | level of necrotic cells (MCF-7 cells; 10 μM DMAT, 24 hours): 8.7% | level of apoptotic cells (MCF-7 cells; 20 μM DMAT): 49.0% | level of necrotic cells (MCF-7 cells; 20 μM DMAT): 7.8% | colonies in soft agar (WM-164 cells): much smaller and fewer colonies | tumor volume relative to untreated HT1376 cells (tumors of HT1376 cells): approximately one-half | tumor growth vs untreated control (tumors of U-87 cells): significantly less cancerous growth
